These results are taken from US9260417B2, “Therapeutic methods and compositions involving allosteric kinase inhibition” (AMITECH THERAPEUTIC SOLUTIONS, INC., priority 2010, dated 2016).

One may read the EC50 as the concentration that produces a half-maximal response. Lower therefore signals an effect from little substance.

Molecules are shown by their SMILES.

The test system of test [1] is bFGF induced angiogenesis. Kind of test: Mouse Matrigel model of angiogenesis. The test is classed as in vivo, mice. The conditions noted are these: 50 mg/kg, ip, bid. On the procedure:
On day 5 after implantation of the Matrigel, the mice were administered FITC-lectin to label blood vessels. The plugs were removed and visualized by confocal microscopy followed by homogenization and quantification of total FITC. Error bars represent ±SEM. […] Thin sections (5 μm) of the Matrigel plugs were immunostained for vessels with an EC mix (anti-Flk, anti-CD31, anti-VE-Cadherin, and anti-endoglin). […] (FIG. 9C) 6 inhibits phosphorylation of PDGFRβY751 in stromal cells. Thin sections (5 μm) of the Matrigel plugs were immunostained for pericytes and fibroblast with α-smooth muscle actin and for phospho-PDGFRβ Y751 levels. ECs were immunostained with anti-CD31. […] Thin sections (5 μm) of the Matrigel plugs were immunostained for vessels with an EC mix (described as in 9B). TOPRO-3 was used as a nuclear counterstain and TUNEL staining was used to detect apoptotic nuclei. Images were taken using confocal laser scanning microscopy. […]
Female Nu/Nu mice were implanted with growth-factor depleted Matrigel (BD Biosciences, San Jose, Calif.) in the flank containing either PBS or 200 ng of bFGF (Peprotech). […] Five days after matrigel implantation, mice were tail-vein injected with FITC-lectin and plugs were harvested and imaged by confocal microscopy and quantified after homogenization in ice-cold PBS using a fluorescent microplate reader (Tecan Systems, Inc., San Jose, Calif.). […]

The nature of test [2]: Treatment of fibrosis in patients with interstitial lung disease. It counts as in vivo, human. As to conditions: 50 mg/Kg/day, oral, 6 months. On the procedure:
This can include patients referred for presumed pulmonary fibrosis/interstitial pneumonitis (IPF, UIP, NSIP), sarcoidosis, hypersensitivity pneumonitis, cryptogenic organising pneumonia, drug-induced, or other idiopathic ILDs. The patients are evaluated after 6 months of treatment.

The next test deals with DYRK1B (Homo sapiens (Human), UniProt Q9Y463). Nature of the test: KINOMEscan competitive binding assay. The conditions noted are these: 10 uM.
The target in the next test is PRKD1 (Homo sapiens (Human), UniProt Q15139). Nature of the test: KINOMEscan competitive binding assay. As to conditions: 10 uM.
A further test addresses CDK11 (Homo sapiens (Human), UniProt Q9BWU1). Kind of test: KINOMEscan competitive binding assay. The conditions noted are these: 10 uM.
The next test deals with FGFR2 (Homo sapiens (Human), UniProt P21802). Nature of the test: KINOMEscan competitive binding assay. The conditions noted are these: 10 uM.
Another test deals with PRKCE (Homo sapiens (Human), UniProt Q02156). Kind of test: KINOMEscan competitive binding assay. The conditions noted are these: 10 uM.
The next test has as its system M21L. Kind of test: Tumor cell viability. The test is classed as cell-based. The conditions noted are these: Melanoma M21L. On the procedure:
(§1) For XTT assays, cells were grown in 96-well plates overnight and all assays were conducted in growth medium will full serum and additives. Compounds were serially diluted in DMSO and then further diluted into the medium to give the appropriate concentration while minimizing precipitation associated with serial diluting in medium alone Inhibitors were added for 72 h and cell viability was quantified at 450 nm after the addition of 1 mg/ml XTT solution (Sigma-Aldrich) in phenol-red free DMEM medium containing […] (Sigma-Aldrich). Dose-response curves were plotted using GraphPad Prism software and EC50s were calculated using this program.

The test system of the next test is CT26. Kind of test: Tumor cell viability. The test is classed as cell-based. The conditions noted are these: Colon Carcinoma CT26. On the procedure: as §1
The next test deals with A431. Kind of test: Tumor cell viability. The test is classed as cell-based. The conditions noted are these: Epithelial Carcinoma A431, HER1. On the procedure:
as §1

The test system of another test is M21. Nature of the test: Tumor cell viability. The test is classed as cell-based. The conditions noted are these: Melanoma M21. How it is done:
as §1

Another test concerns the target SRPK2 (Homo sapiens (Human), UniProt P78362). Nature of the test: KINOMEscan competitive binding assay. As to conditions: 10 uM.
A further test has as its target ABL1 (Homo sapiens (Human), UniProt P00519). Nature of the test: KINOMEscan competitive binding assay. As to conditions: 10 uM.
A further test has as its target p38-alpha (Homo sapiens (Human), UniProt Q16539). Kind of test: KINOMEscan competitive binding assay. As to conditions: 10 uM.
Another test deals with B-RAF (V600E). Kind of test: ERK phosphorylation in 1205Lu melanoma cells expressing B-RAF V600E. The test is classed as cell-based, human. As to conditions: 10 μM, 1 h.
In another test the target is MLK3 (Homo sapiens (Human), UniProt Q16584). Kind of test: KINOMEscan competitive binding assay. The conditions noted are these: 10 uM.

Method for ABL1: (§2) For the competitive binding assay, test compounds were screened at 10 μM against 70 diverse kinase targets for competitive binding using the KINOMEscan™ technology (Ambit Biosciences) (Karaman, et al. (2008) Nature biotechnology 26:127-132). 11-point Kd curves were determined for hits identified during the initial screen.
Method for CDK11: as §2
Method for FGFR2: as §2
Method for p38-alpha: as §2

As for `CSc1nc(N)cc(Oc2ccc(-c3nnc(Nc4cccc(C(F)(F)F)c4)[nH]3)cc2)n1` [Compound 6], the “p-ERK staining in endothelial cells of Matrigel plugs” value in [1] is reported as “suppression in the p-ERK staining”. In addition, the “p-PDGFRβY751 signal in stromal compartment of Matrigel plugs” value in test [1] was “complete suppression”. Further, in [2], the “outcome of fibrosis treatment versus placebo” value is on record as “improvement over placebo group”. The “% Control” value at DYRK1B is reported as 85%; on PRKD1, 100%; at CDK11, 32%; on FGFR2 it was 100%; at PRKCE it was 91%; at SRPK2, 100%. For the same compound, the “% Control” value at ABL1 came out at 100%; at p38-alpha, 100%; at MLK3, 96%. The concentration giving a half-maximal response (EC50) in the test on M21L is 420 nM; in the test on CT26 it was 710 nM; in the test on A431 it was 430 nM; with M21 it was 450 nM. The “phosphorylation of ERK T202/Y204 in cells expressing constitutively active B-RAF (V600E)” value in the test on B-RAF (V600E) is given as “completely disrupted”.
